Test system: SEM cells
Test: cell viability relative to DMSO control; higher = less cytotoxic
Conditions: 48 h
In short: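 Viability was expressed as a per-plate percentage of DMSO wells, with cell-free wells as background. Leukemia cells (NOMO1 or SEM at 500 cells/well, P12-Ichikawa at 1000 cells/well) were adapted for at least four passages in each medium and seeded in 1536-well plates (5 μl). Library compounds in DMSO were pin-dosed over an 11-point threefold series from 47 μM to 0.79 nM, and CellTiter-Glo One luminescence was read after 48 h at 37°C.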

[1] = HPLM + 10% dialyzed FBS, 0.000781 µM
[2] = HPLM + 10% dialyzed FBS, 0.00234 µM
[3] = HPLM + 10% dialyzed FBS, 0.00702 µM
[4] = HPLM + 10% dialyzed FBS, 0.0211 µM
[5] = HPLM + 10% dialyzed FBS, 0.0632 µM
[6] = HPLM + 10% dialyzed FBS, 0.19 µM
[7] = HPLM + 10% dialyzed FBS, 0.569 µM
[8] = HPLM + 10% dialyzed FBS, 1.71 µM
[9] = HPLM + 10% dialyzed FBS, 5.12 µM
[10] = HPLM + 10% dialyzed FBS, 15.4 µM
[11] = HPLM + 10% dialyzed FBS, 46.1 µM
[12] = RPMI 5 mM glucose + 10% FBS, 0.000781 µM
[13] = RPMI 5 mM glucose + 10% FBS, 0.00234 µM
[14] = RPMI 5 mM glucose + 10% FBS, 0.00702 µM
[15] = RPMI 5 mM glucose + 10% FBS, 0.0211 µM
[16] = RPMI 5 mM glucose + 10% FBS, 0.0632 µM
[17] = RPMI 5 mM glucose + 10% FBS, 0.19 µM
[18] = RPMI 5 mM glucose + 10% FBS, 0.569 µM
[19] = RPMI 5 mM glucose + 10% FBS, 1.71 µM
[20] = RPMI 5 mM glucose + 10% FBS, 5.12 µM
[21] = RPMI 5 mM glucose + 10% FBS, 15.4 µM
[22] = RPMI 5 mM glucose + 10% FBS, 46.1 µM
[23] = RPMI 5 mM glucose + 10% dialyzed FBS, 0.000781 µM
[24] = RPMI 5 mM glucose + 10% dialyzed FBS, 0.00234 µM
[25] = RPMI 5 mM glucose + 10% dialyzed FBS, 0.00702 µM
[26] = RPMI 5 mM glucose + 10% dialyzed FBS, 0.0211 µM
[27] = RPMI 5 mM glucose + 10% dialyzed FBS, 0.0632 µM
[28] = RPMI 5 mM glucose + 10% dialyzed FBS, 0.19 µM
[29] = RPMI 5 mM glucose + 10% dialyzed FBS, 0.569 µM
[30] = RPMI 5 mM glucose + 10% dialyzed FBS, 1.71 µM
[31] = RPMI 5 mM glucose + 10% dialyzed FBS, 5.12 µM
[32] = RPMI 5 mM glucose + 10% dialyzed FBS, 15.4 µM
[33] = RPMI 5 mM glucose + 10% dialyzed FBS, 46.1 µM

Structure (SMILES)	cell viability [1] [%]	cell viability [2] [%]	cell viability [3] [%]	cell viability [4] [%]	cell viability [5] [%]	cell viability [6] [%]	cell viability [7] [%]	cell viability [8] [%]	cell viability [9] [%]	cell viability [10] [%]	cell viability [11] [%]	cell viability [12] [%]	cell viability [13] [%]	cell viability [14] [%]	cell viability [15] [%]	cell viability [16] [%]	cell viability [17] [%]	cell viability [18] [%]	cell viability [19] [%]	cell viability [20] [%]	cell viability [21] [%]	cell viability [22] [%]	cell viability [23] [%]	cell viability [24] [%]	cell viability [25] [%]	cell viability [26] [%]	cell viability [27] [%]	cell viability [28] [%]	cell viability [29] [%]	cell viability [30] [%]	cell viability [31] [%]	cell viability [32] [%]	cell viability [33] [%]
C1CCN2C[C@H]3C[C@H](\C=C/4CCCN[C@@H]34)[C@H]2C1	91.7	108	105	107	115	115	113	108	101	123	112	95.2	105	89.2	118	103	110	102	96	95.7	118	120	99.6	102	109	127	103	117	103	104	95.8	122	122
CNC(=O)CN1CCC(Oc2cc3c(Nc4cccc(Cl)c4F)ncnc3cc2OC)CC1	104	110	110	135	112	122	128	130	121	129	104	117	128	116	118	120	130	130	124	125	122	84.9	114	113	120	141	138	152	140	149	125	138	88.8
c1ccc(-c2oc3ncnc(NC[C@@H]4CCCO4)c3c2-c2ccccc2)cc1	115	115	114	121	126	130	125	134	128	121	79.4	111	112	109	103	108	110	105	106	112	99.9	61.1	121	129	115	118	104	136	111	112	118	124	69.6
Cc1c(C)c2c(c(C)c1O)CCC(C)(COc1ccc(CC3SC(=O)NC3=O)cc1)O2 (stereo not drawn)	119	113	127	117	124	117	128	132	141	112	93.1												104	101	127	106	126	121	136	134	154	95.4	84.9
C[C@@H](O)[C@@H]1NC(=O)[C@H](CCCCN)NC(=O)[C@@H](Cc2c[nH]c3ccccc23)NC(=O)[C@H](Cc2ccccc2)NC(=O)[C@@H](NC(=O)[C@H](N)Cc2ccccc2)CSSC[C@@H](C(=O)N[C@H](CO)[C@@H](C)O)NC1=O	71.3	83.6	87.8	91	99	78.3	83.4	91.2	97.5	97.7	84.6	67.4	94.4	83.2	105	90.6	55.5	82.6	91.6	101	90.4	70.4	64.8	81	84.5	86.1	78.7	75.1	81.7	74.7	97.1	85.6	67.3
C=CCc1ccc(O)c(-c2ccc(O)c(CC=C)c2)c1	103	107	109	95.3	120	112	105	56.1	40.6	40.4	37.6	78.6	88.8	93.2	85.1	93.6	108	79.1	20	14.7	21.4	17.6	98.8	101	109	89.6	109	107	94	27.2	20.6	21.4	24.6
Cc1cccc(/C=N/Nc2cc(N3CCOCC3)nc(OCCc3ccccn3)n2)c1	99.3	93.8	102	100	111	87	104	72.8	82.7	52.9	31.8	97.8	98.9	106	109	105	96.1	95.4	85.9	66.9	34.9	13.4	104	100	101	96.8	90.3	81.3	70.8	73.8	54.9	35.3	7.57
COc1cc(C(=O)NS(=O)(=O)c2ccccc2C)ccc1Cc1cn(C)c2ccc(NC(=O)OC3CCCC3)cc12	59.7	55.9	66.9	73.4	87.5	90	80.7	70	64.4	62.6	5.13	85.4	83.3	73.3	63.4	92.4	85.2	39.6	70.5	78.9	71.3	4.48	69.7	54.8	64.2	76.6	77.9	83.2	62.4	76.5	63	72.5	5.4
CC[C@]1(O)C[C@@H]2CN(CCc3c([nH]c4ccccc34)[C@@](C(=O)OC)(c3cc4c(cc3OC)N(C)[C@H]3[C@@](O)(C(N)=O)[C@H](O)[C@]5(CC)C=CCN6CC[C@]43[C@@H]65)C2)C1	123	110	114	106	89.2	43.2	26.3	20.5	20	15.7	6.67												118	104	124	124	97.8	44.8	26.6	24.3	20.4	16.3	5.01
C[S+](=O)([O-])c1ccc(Oc2cc(F)cc(C#N)c2)c2c1[C@H](O)C(F)(F)C2	73.5	97.9	101	101	108	105	103	106	111	106	87.7	93.8	117	152	140	138	155	144	156	141	158	124	76.9	112	121	105	124	121	106	128	106	120	84.9
CC(NCCc1ccc(O)cc1)C(O)c1ccc(O)cc1 (stereo not drawn)	84.4	80.5	73	89	86.1	84.1	74.6	98.7	90.7	105	84.8	106	110	109	111	97.5	103	92.5	107	98.2	103	99.4	133	119	122	118	117	110	90.6	112	105	111	81.9
CC(C)OC1=CC=C2C(=C1)O\C=C(/C2=O)C3=CC=CC=C3	106	118	105	118	115	123	110	125	112	133	106	113	123	134	109	131	130	133	144	128	144	116	106	133	121	126	129	146	157	156	147	148	126
CC/1=C(/N2[C@H](SC1)[C@H](NC(=O)C(N)C3=CC=CC=C3)C2=O)C(O)=O (stereo partly drawn)	99.3	113	119	110	108	120	120	124	114	126	131	128	118	117	132	155	138	129	141	136	122	131	115	119	137	143	129	140	132	142	132	130	134
C[C@]12CC[C@H]3[C@@H](CCC/4=C/C(=O)CC[C@]34C)[C@@H]1CC[C@@H]2OC(=O)CCC5CCCC5	90	92.3	99.1	102	104	99.9	95.6	104	101	97.1	111	99.7	86.2	109	105	122	115	131	101	124	98.8	94.6	99.5	105	101	113	104	104	108	121	124	90.6	109
COC1=CC=C(C=C1O)C/2=C/C(=O)C3=C(O2)C=C(O[C@@H]4O[C@H](CO[C@@H]5O[C@@H](C)[C@H](O)[C@@H](O)[C@H]5O)[C@@H](O)[C@H](O)[C@H]4O)C=C3O	95.1	103	106	114	124	108	122	118	102	129	113	115	108	107	111	122	113	100	106	85.9	105	103	102	103	111	102	123	111	112	114	93.8	101	99.2
